Literature values in publication PMC11809415 (The Journal of Cell Biology, 2025).

What was measured:
[1] = ref Coluccio and Tilney, 1984; cited from earlier work
Description: Phalloidin, a cyclic peptide derived from the fungus Amanita phalloides, was one of the first probes used for F-actin labeling ([Wehland et al., 1977]; [Wulf et al., 1979]). […] The need to visualize actin dynamics led to the development of genetically encoded fluorescent probes. Chimeras of green fluorescent protein ...

F-actin = conditions: ref Melak et al., 2017; cited from earlier work
Description: Phalloidin, a cyclic peptide derived from the fungus Amanita phalloides, was one of the first probes used for F-actin labeling ([Wehland et al., 1977]; [Wulf et al., 1979]). […] The need to visualize actin dynamics led to the development of genetically encoded fluorescent probes. Chimeras of green fluorescent protein ... || In live cell imaging experiments, F-tractin is typically used as a fusion of fluorescent proteins. […] However, a comparison of both markers has been largely limited to characterizations in cells ([Belin et al., 2014]; [Spracklen et al., 2014]; [Vosatka et al., 2022]). With structures of both probes in complex with F-actin available, we can now directly compare their actin interactions in atomic detail (Fig. 4, A–C). Both probes are at their core amphipathic helices that bind to overlapping interfaces of consecutive actin subunits, indicating a preference for “aged” A ...

Substance: Phalloidin
- membrane permeability [1]: low membrane permeability
- affinity and selectivity for F-actin (F-actin): high affinity and selectivity for F-actin
